Assay results as given in ChEMBL document CHEMBL3132827, “Quinazoline and tetrahydropyridothieno[2,3-d]pyrimidine derivatives as irreversible EGFR tyrosine kinase inhibitors: influence of the position 4 substituent” (Medchemcomm, 2013).

Tests used:
[1] = Cytotoxicity against human SKBR3 cells expressing wild type EGFR assessed as growth inhibition incubated for 1 hr prior to EGF challenge measured after 72 hrs by luciferase reporter gene assay; type: functional, cell-based; settings: SK-BR-3
NCI-H1975 = assay: cells; type: functional, cell-based; settings: Homo sapiens
[2] = target: Epidermal growth factor receptor (Homo sapiens, UniProt P00533); assay: Inhibition of recombinant wild type EGFR kinase(unknown origin) after 30 mins in presence of [gamma32P]ATP
Sequence of Epidermal growth factor receptor (Homo sapiens, UniProt P00533) (P00533 whole entry): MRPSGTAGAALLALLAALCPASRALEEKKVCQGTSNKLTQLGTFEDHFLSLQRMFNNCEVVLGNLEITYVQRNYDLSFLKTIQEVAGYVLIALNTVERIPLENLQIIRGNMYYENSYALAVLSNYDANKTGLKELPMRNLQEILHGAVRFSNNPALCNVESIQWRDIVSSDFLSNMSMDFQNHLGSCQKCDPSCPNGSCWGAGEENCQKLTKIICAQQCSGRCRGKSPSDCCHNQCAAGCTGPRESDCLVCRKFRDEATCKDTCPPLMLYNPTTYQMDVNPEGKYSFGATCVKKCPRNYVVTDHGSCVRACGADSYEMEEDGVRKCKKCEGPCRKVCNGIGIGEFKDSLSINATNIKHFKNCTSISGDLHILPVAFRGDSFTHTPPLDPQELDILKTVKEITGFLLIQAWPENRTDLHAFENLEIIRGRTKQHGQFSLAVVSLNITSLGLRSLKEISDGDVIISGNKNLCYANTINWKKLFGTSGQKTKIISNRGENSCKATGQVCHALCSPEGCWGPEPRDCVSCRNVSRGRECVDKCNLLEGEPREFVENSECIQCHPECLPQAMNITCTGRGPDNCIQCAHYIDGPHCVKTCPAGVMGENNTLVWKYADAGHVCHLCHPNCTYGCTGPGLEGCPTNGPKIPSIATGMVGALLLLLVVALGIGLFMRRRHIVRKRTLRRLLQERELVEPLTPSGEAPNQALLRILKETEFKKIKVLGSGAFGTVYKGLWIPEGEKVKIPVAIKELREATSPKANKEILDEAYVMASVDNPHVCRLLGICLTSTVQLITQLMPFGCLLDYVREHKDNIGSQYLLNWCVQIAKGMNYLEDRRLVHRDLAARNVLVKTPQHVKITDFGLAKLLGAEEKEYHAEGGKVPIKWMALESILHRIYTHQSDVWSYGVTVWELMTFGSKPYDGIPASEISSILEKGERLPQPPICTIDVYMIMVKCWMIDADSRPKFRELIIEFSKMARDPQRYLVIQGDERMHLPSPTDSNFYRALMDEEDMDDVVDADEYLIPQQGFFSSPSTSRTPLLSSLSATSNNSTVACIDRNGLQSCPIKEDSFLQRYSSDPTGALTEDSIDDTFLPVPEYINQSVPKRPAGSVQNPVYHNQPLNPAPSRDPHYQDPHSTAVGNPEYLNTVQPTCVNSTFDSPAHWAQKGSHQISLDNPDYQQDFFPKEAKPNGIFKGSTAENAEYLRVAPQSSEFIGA

[3] = target: Epidermal growth factor receptor (Homo sapiens, UniProt P00533, L858R/T790M); type: cell-based, NCI-H1975
Sequence of Epidermal growth factor receptor (Homo sapiens, UniProt P00533, L858R/T790M) (P00533 25-1210 T790M/L858R limits assumed): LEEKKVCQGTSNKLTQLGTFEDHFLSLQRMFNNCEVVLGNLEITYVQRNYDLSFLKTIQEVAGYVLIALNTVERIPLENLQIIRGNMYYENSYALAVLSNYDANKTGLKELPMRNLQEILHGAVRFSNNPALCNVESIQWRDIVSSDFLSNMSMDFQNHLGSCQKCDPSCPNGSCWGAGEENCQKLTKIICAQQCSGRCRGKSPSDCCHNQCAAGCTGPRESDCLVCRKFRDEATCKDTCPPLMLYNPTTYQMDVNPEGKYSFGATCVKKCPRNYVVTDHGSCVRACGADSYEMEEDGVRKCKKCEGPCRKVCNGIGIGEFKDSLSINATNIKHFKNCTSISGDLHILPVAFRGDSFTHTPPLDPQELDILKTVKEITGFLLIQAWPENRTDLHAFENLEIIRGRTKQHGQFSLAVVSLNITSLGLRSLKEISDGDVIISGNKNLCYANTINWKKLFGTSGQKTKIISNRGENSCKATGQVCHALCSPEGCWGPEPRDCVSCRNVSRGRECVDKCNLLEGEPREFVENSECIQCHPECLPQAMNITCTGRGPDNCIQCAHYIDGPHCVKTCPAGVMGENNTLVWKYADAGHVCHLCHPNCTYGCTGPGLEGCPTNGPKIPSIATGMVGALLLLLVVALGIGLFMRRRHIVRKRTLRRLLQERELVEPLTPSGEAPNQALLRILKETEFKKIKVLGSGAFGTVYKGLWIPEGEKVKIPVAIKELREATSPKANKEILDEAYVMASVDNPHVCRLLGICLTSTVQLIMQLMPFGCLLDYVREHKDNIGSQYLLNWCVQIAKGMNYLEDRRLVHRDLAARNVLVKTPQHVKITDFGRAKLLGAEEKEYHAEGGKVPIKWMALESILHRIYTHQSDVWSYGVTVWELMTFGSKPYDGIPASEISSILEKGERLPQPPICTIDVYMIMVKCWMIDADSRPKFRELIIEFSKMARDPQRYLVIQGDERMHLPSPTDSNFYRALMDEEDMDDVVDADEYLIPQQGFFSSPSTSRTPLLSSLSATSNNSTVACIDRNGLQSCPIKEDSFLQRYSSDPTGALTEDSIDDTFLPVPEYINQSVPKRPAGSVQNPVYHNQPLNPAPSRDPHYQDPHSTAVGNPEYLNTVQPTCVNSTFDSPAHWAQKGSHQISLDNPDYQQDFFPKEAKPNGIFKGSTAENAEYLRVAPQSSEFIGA

SMILES	IC50 [1]	IC50 (NCI-H1975)	IC50 [2]	IC50 [3]
C=CC(=O)Nc1ccc2ncnc(Nc3ccc(CC)cc3)c2c1	1140 nM	15.7 µM	3.2 nM	–
C=CC(=O)Nc1ccc2ncnc(Nc3ccc(S(=O)(=O)Nc4ccccn4)cc3)c2c1	390 nM	> 40 µM	9.8 nM	4390 nM
C=CC(=O)Nc1ccc2ncnc(Nc3c(F)cccc3Br)c2c1	230 nM	0.26 µM	2.2 nM	–
C=CC(=O)N1CCc2c(sc3ncnc(Nc4cccc(C)c4F)c23)C1	1400 nM	33.8 µM	3.95 nM	280 nM
C=CC(=O)Nc1ccc2ncnc(Nc3cccc(Br)c3)c2c1	200 nM	0.44 µM	–	–
C=CC(=O)Nc1ccc2ncnc(Nc3ccc(Br)c(C)c3)c2c1	1420 nM	1.82 µM	2.3 nM	–
C=CC(=O)N1CCc2c(sc3ncnc(Nc4ccc(CC)cc4)c23)C1	6200 nM	15.2 µM	7.38 nM	130 nM
C=CC(=O)Nc1ccc2ncnc(Nc3ccc(S(N)(=O)=O)cc3)c2c1	2500 nM	> 40 µM	76.5 nM	–
C=CC(=O)N1CCc2c(sc3ncnc(Nc4ccc(Br)c(C)c4)c23)C1	> 40000 nM	> 40 µM	4.4 nM	–
C=CC(=O)N1CCc2c(sc3ncnc(NC4CCCCC4)c23)C1	> 40000 nM	> 40 µM	> 150 nM	> 5000 nM
C=CC(=O)Nc1ccc2ncnc(Nc3ccc(S(=O)(=O)NC(=N)N)cc3)c2c1	> 40000 nM	> 40 µM	53.3 nM	–
C=CC(=O)Nc1ccc2ncnc(Nc3cccc(CC)c3)c2c1	2820 nM	0.68 µM	2.7 nM	275 nM
C=CC(=O)Nc1ccc2ncnc(Nc3ccc(Br)cc3F)c2c1	510 nM	0.28 µM	2.1 nM	36 nM
C=CC(=O)N1CCc2c(sc3ncnc(Nc4cccc(CC)c4)c23)C1	3200 nM	23.8 µM	8.73 nM	–
C=CC(=O)Nc1ccc2ncnc(Nc3ccc(OC)cc3OC)c2c1	6890 nM	13.9 µM	–	–
C=CC(=O)Nc1ccc2ncnc(Nc3ccc(Br)cc3C)c2c1	630 nM	1.86 µM	2.2 nM	–
C=CC(=O)Nc1ccc2ncnc(NC3CCCCC3)c2c1	400 nM	> 40 µM	3.4 nM	2800 nM
C=CC(=O)Nc1ccc2ncnc(Nc3ccc(Br)c(OC)c3)c2c1	360 nM	0.4 µM	2.5 nM	–
C=CC(=O)N1CCc2c(sc3ncnc(Nc4ccc(Br)cc4F)c23)C1	2300 nM	> 40 µM	3.71 nM	–
C=CC(=O)Nc1ccc2ncnc(Nc3ccccc3CC)c2c1	7700 nM	16 µM	18.9 nM	2000 nM
C=CC(=O)Nc1ccc2ncnc(Nc3cccc(C)c3F)c2c1	1860 nM	0.39 µM	1.5 nM	111000 nM
C=CC(=O)Nc1ccc2ncnc(Nc3ccc(S(=O)(=O)Nc4nccs4)cc3)c2c1	4000 nM	> 40 µM	43.7 nM	–
